Values of other authors in US20220023282A1 (priority 2018, published 2022).

System: Mycobacterium tuberculosis isolates
Settings: variety of Mycobacterium tuberculosis isolates, regardless of resistance to other anti-TB drugs; cited from earlier work

COc1nc2ccc(Br)cc2cc1[C@@H](c1ccccc1)[C@@](O)(CCN(C)C)c1cccc2ccccc12 [bedaquiline, (1R,2S)-1-(6-bromo-2-methoxyquinolin-3-yl)-4-(dimethylamino)-2-(naphthalen-1-yl)-1-phenylbutan-2-ol]
Minimum Inhibitory Concentration (MIC) 99: 0.01 to 0.1 µg/mL
